Assay results from PubChem BioAssay AID248 (DTP/NCI, 2004).
Inconclusive results and toxic doses are left out.

Tested on: L1210 leukemia ip in BDF1 mice, survival T/C
Assay: NCI In Vivo Anticancer Drug Screen. Data for tumor model L1210 Leukemia (intraperitoneal) in B6D2F1 (BDF1) mice
Conditions: endpoint: mean survival time, higher = longer survival
Outline: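 In this screen, tumor-bearing mice given compound are compared to those given vehicle, and their survival values are reported as a treated-to-control quotient.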

[1] = dose: 100.0 mg/kg/injection, schedule: Q01DX009 (ip), vehicle: saline with Tween-80
[2] = dose: 100.0 mg/kg/injection, schedule: Q04DX003 (ip), vehicle: saline with Tween-80
[3] = dose: 200.0 mg/kg/injection, schedule: Q01DX009 (ip), vehicle: saline with Tween-80
[4] = dose: 200.0 mg/kg/injection, schedule: Q04DX003 (ip), vehicle: saline with Tween-80
[5] = dose: 400.0 mg/kg/injection, schedule: Q04DX003 (ip), vehicle: saline with Tween-80
[6] = dose: 100.0 mg/kg/injection, schedule: Q04DX003 (ip), vehicle: Klucel (hydroxypropylcellulose) (HPC)
[7] = dose: 200.0 mg/kg/injection, schedule: Q04DX003 (ip), vehicle: Klucel (hydroxypropylcellulose) (HPC)
[8] = dose: 400.0 mg/kg/injection, schedule: Q04DX003 (ip), vehicle: Klucel (hydroxypropylcellulose) (HPC)
[9] = dose: 100.0 mg/kg/injection, schedule: Q01DX009 (ip), vehicle: saline
[10] = dose: 200.0 mg/kg/injection, schedule: Q01DX009 (ip), vehicle: saline
[11] = dose: 400.0 mg/kg/injection, schedule: Q01DX009 (ip), vehicle: saline
[12] = dose: 100.0 mg/kg/injection, schedule: Q01DX001 (ip), vehicle: carboxymethylcellulose (CMC)
[13] = dose: 400.0 mg/kg/injection, schedule: Q01DX001 (ip), vehicle: carboxymethylcellulose (CMC)

Cc1cccc(C2=NCCN2)c1C
T/C (dose: 5.0 mg/kg/injection, schedule: Q01DX009 (ip), vehicle: saline with Tween-80): 97 % of control | T/C (dose: 10.0 mg/kg/injection, schedule: Q01DX009 (ip), vehicle: saline with Tween-80): 103 % of control | T/C (dose: 20.0 mg/kg/injection, schedule: Q01DX009 (ip), vehicle: saline with Tween-80): 97 % of control

CC(C)=Cc1ccccc1
T/C [1]: 98 % of control | T/C [2]: 95 % of control | T/C [3]: 93 % of control | T/C [4]: 87 % of control | T/C [5]: 94 % of control

O=C(NNc1ccc([N+](=O)[O-])cc1)c1ccccc1
T/C [6]: 94 % of control | T/C [7]: 94 % of control | T/C [8]: 100 % of control

CC1=CCC(O)(C(C)C)CC1 (stereo not given)
T/C [9]: 93 % of control | T/C [10]: 93 % of control | T/C [11]: 95 % of control

COc1cc(N(CCCl)CCCl)c(OC)cc1/C=N/NC(=O)CC(N)C(=O)O (stereo not given)
T/C (dose: 12.37 mg/kg/injection, schedule: Q01DX009 (ip), vehicle: saline): 107 % of control | T/C (dose: 12.5 mg/kg/injection, schedule: Q01DX009 (ip), vehicle: saline with Tween-80): 113 % of control | T/C (dose: 18.75 mg/kg/injection, schedule: Q01DX009 (ip), vehicle: saline): 112 % of control | T/C (dose: 25.0 mg/kg/injection, schedule: Q01DX009 (ip), vehicle: saline with Tween-80): 119 % of control | T/C (dose: 28.12 mg/kg/injection, schedule: Q01DX009 (ip), vehicle: saline): 112 % of control | T/C (dose: 37.5 mg/kg/injection, schedule: Q01DX009 (ip), vehicle: saline): 88 % of control | T/C (dose: 37.5 mg/kg/injection, schedule: Q04DX003 (ip), vehicle: acetone): 111 % of control | T/C (dose: 50.0 mg/kg/injection, schedule: Q01DX009 (ip), vehicle: saline with Tween-80): 119 % of control | T/C (dose: 75.0 mg/kg/injection, schedule: Q01DX001 (ip), vehicle: saline): 123 % of control | T/C (dose: 75.0 mg/kg/injection, schedule: Q01DX009 (ip), vehicle: saline): 88 % of control | T/C (dose: 75.0 mg/kg/injection, schedule: Q04DX003 (ip), vehicle: acetone): 105 % of control | T/C [12]: 115 % of control | T/C (dose: 100.0 mg/kg/injection, schedule: Q01DX009 (ip), vehicle: other): 120 % of control | T/C (dose: 150.0 mg/kg/injection, schedule: Q01DX001 (ip), vehicle: saline): 123 % of control | T/C (dose: 150.0 mg/kg/injection, schedule: Q04DX003 (ip), vehicle: acetone): 113 % of control | T/C (dose: 177.0 mg/kg/injection, schedule: Q01DX001 (ip), vehicle: carboxymethylcellulose (CMC)): 120 % of control | T/C (dose: 266.0 mg/kg/injection, schedule: Q01DX001 (ip), vehicle: carboxymethylcellulose (CMC)): 124 % of control | T/C [13]: 118 % of control | T/C (dose: 600.0 mg/kg/injection, schedule: Q01DX001 (ip), vehicle: carboxymethylcellulose (CMC)): 153 % of control

COc1cc(OC)c(N=Cc2ccc([N+](=O)[O-])s2)cc1Cl
T/C [6]: 101 % of control | T/C [7]: 101 % of control | T/C [8]: 95 % of control

CC(C)(C)N1CC(C(O)c2ccccc2)C1c1ccccc1 (stereo not given)
T/C [6]: 98 % of control | T/C [7]: 95 % of control

COc1nc(Cl)nc(Cl)n1
T/C (dose: 6.0 mg/kg/injection, schedule: Q01DX Z (ip), vehicle: methylcellulose (MC)): 89 % of control

NC(N)=N/N=C(/c1ccccc1)c1ccc(O)cc1O
T/C (dose: 15.0 mg/kg/injection, schedule: Q01DX Z (ip), vehicle: saline): 101 % of control | T/C (dose: 30.0 mg/kg/injection, schedule: Q01DX Z (ip), vehicle: saline): 92 % of control | T/C (dose: 60.0 mg/kg/injection, schedule: Q01DX Z (ip), vehicle: saline): 94 % of control | T/C (dose: 120.0 mg/kg/injection, schedule: Q01DX Z (ip), vehicle: saline): 92 % of control | T/C (dose: 120.0 mg/kg/injection, schedule: Q01DX Z (oral), vehicle: saline): 101 % of control | T/C (dose: 240.0 mg/kg/injection, schedule: Q01DX Z (ip), vehicle: saline): 108 % of control | T/C (dose: 240.0 mg/kg/injection, schedule: Q01DX Z (oral), vehicle: saline): 102 % of control | T/C (dose: 480.0 mg/kg/injection, schedule: Q01DX Z (oral), vehicle: saline): 101 % of control | T/C (dose: 960.0 mg/kg/injection, schedule: Q01DX Z (oral), vehicle: saline): 98 % of control

c1ccc2c(c1)CCc1c-2[nH]c2ccccc12
T/C [1]: 96 % of control | T/C [3]: 94 % of control

[N-]=[N+]=Nc1nc(Cl)nc2c1ncn2Cc1ccccc1
T/C (dose: 75.0 mg/kg/injection, schedule: Q01DX001 (ip), vehicle: other): 97 % of control

NS(=O)(=O)c1ccc(NC(=O)Nc2cc([N+](=O)[O-])ccc2F)cc1
T/C [6]: 98 % of control | T/C [7]: 95 % of control | T/C [8]: 87 % of control

COC1OCC(NC(=O)C(F)(F)F)C(OC(C)=O)C1OC(C)=O (stereo not given)
T/C (dose: 50.0 mg/kg/injection, schedule: Q01DX001 (ip), vehicle: carboxymethylcellulose (CMC)): 94 % of control | T/C [12]: 100 % of control | T/C (dose: 200.0 mg/kg/injection, schedule: Q01DX001 (ip), vehicle: carboxymethylcellulose (CMC)): 105 % of control | T/C [13]: 100 % of control

COC(=O)C1=CNC=C(C(=O)OC)C1c1ccc(C)cc1
T/C [2]: 95 % of control | T/C [4]: 93 % of control | T/C [5]: 91 % of control

CC1(C)CC(N=Cc2ccccc2O)CC(C)(C)N1O.CC1(C)CC(N=Cc2ccccc2O)CC(C)(C)N1O.[Pd]
T/C [2]: 88 % of control | T/C [4]: 90 % of control | T/C [5]: 88 % of control

CCN(CC)S(=O)(=O)NC1C(=O)N(c2ccccc2)N(C)C1C (stereo not given)
T/C (dose: 100.0 mg/kg/injection, schedule: Q04DX002 (ip), vehicle: saline with Tween-80): 104 % of control | T/C (dose: 200.0 mg/kg/injection, schedule: Q04DX002 (ip), vehicle: saline with Tween-80): 101 % of control | T/C (dose: 400.0 mg/kg/injection, schedule: Q04DX002 (ip), vehicle: saline with Tween-80): 104 % of control

O=[N+]([O-])c1ccc2c(c1)-c1ccccc1C2Br (stereo not given)
T/C (dose: 100.0 mg/kg/injection, schedule: Q01DX005 (ip), vehicle: Klucel (hydroxypropylcellulose) (HPC)): 88 % of control | T/C (dose: 100.0 mg/kg/injection, schedule: Q04DX002 (ip), vehicle: Klucel (hydroxypropylcellulose) (HPC)): 117 % of control | T/C (dose: 200.0 mg/kg/injection, schedule: Q04DX002 (ip), vehicle: Klucel (hydroxypropylcellulose) (HPC)): 101 % of control | T/C (dose: 400.0 mg/kg/injection, schedule: Q01DX005 (ip), vehicle: Klucel (hydroxypropylcellulose) (HPC)): 102 % of control | T/C (dose: 400.0 mg/kg/injection, schedule: Q04DX002 (ip), vehicle: Klucel (hydroxypropylcellulose) (HPC)): 90 % of control

CSc1nc2ncncc2c(=O)[nH]1
T/C (dose: 100.0 mg/kg/injection, schedule: Q01DX001 (ip), vehicle: Klucel (hydroxypropylcellulose) (HPC)): 96 % of control | T/C (dose: 100.0 mg/kg/injection, schedule: Q01DX009 (ip), vehicle: Klucel (hydroxypropylcellulose) (HPC)): 98 % of control | T/C (dose: 200.0 mg/kg/injection, schedule: Q01DX001 (ip), vehicle: Klucel (hydroxypropylcellulose) (HPC)): 100 % of control | T/C (dose: 200.0 mg/kg/injection, schedule: Q01DX009 (ip), vehicle: Klucel (hydroxypropylcellulose) (HPC)): 102 % of control | T/C (dose: 400.0 mg/kg/injection, schedule: Q01DX001 (ip), vehicle: Klucel (hydroxypropylcellulose) (HPC)): 101 % of control | T/C (dose: 400.0 mg/kg/injection, schedule: Q01DX009 (ip), vehicle: Klucel (hydroxypropylcellulose) (HPC)): 95 % of control

COC(=O)C1CN=NC1C(=O)OC (stereo not given)
T/C (dose: 100.0 mg/kg/injection, schedule: Q04DX003 (ip), vehicle: acetone): 98 % of control | T/C (dose: 200.0 mg/kg/injection, schedule: Q04DX003 (ip), vehicle: acetone): 96 % of control | T/C (dose: 400.0 mg/kg/injection, schedule: Q04DX003 (ip), vehicle: acetone): 101 % of control

[O-][n+]1c2ccccc2nn1-c1ccccc1
T/C (dose: 100.0 mg/kg/injection, schedule: Q01DX001 (ip), vehicle: saline): 95 % of control | T/C (dose: 200.0 mg/kg/injection, schedule: Q01DX001 (ip), vehicle: saline): 96 % of control | T/C (dose: 400.0 mg/kg/injection, schedule: Q01DX001 (ip), vehicle: saline): 97 % of control

CCOC1NC(C)(C)CO1 (stereo not given)
T/C [9]: 101 % of control | T/C (dose: 100.0 mg/kg/injection, schedule: Q04DX003 (ip), vehicle: saline): 115 % of control | T/C [10]: 101 % of control | T/C (dose: 200.0 mg/kg/injection, schedule: Q04DX003 (ip), vehicle: saline): 97 % of control | T/C [11]: 97 % of control | T/C (dose: 400.0 mg/kg/injection, schedule: Q04DX003 (ip), vehicle: saline): 121 % of control
